Earlier results on one compound are cited in PMC10340494, “Sweeteners’ Influence on In Vitro α-Glucosidase Inhibitory Activity, Cytotoxicity, Stability and In Vivo Bioavailability of the Anthocyanins from Lingonberry Jams” (Foods, 2023).

The test system of one series is maltase. The arrangement: method as in PMID 18615280.
The next series relates to sucrase. The arrangement: method as in PMID 18615280.

Regarding `OC[C@H]1O[C@@H](Oc2cc3c(O)cc(O)cc3[o+]c2-c2ccc(O)c(O)c2)[C@H](O)[C@@H](O)[C@H]1O` [cyanidin-3-galactoside], the Inhibition of maltase in the series with maltase is recorded as 35%. The Inhibition of sucrase in the series with sucrase is given as 64%.
